Data taken from publication PMC9920986 (Molecules, 2023).
Where two headings read alike, the source gives them in different places.

What was measured:
NQO2 = conditions: cited from earlier work; for IC50: Figure 1
[1] = Antiproliferative assay (MTT colorimetric test, 72 h); type: cell-based; conditions: human, n.a. = not active, read-out: A549, CC50
Description: (§1) The cytotoxicity of the synthesized oxindoles was studied using the A549 cell line in which the levels of NQO2 are increased (Table 4). […] The cytotoxicity of the compounds may be due to the inhibition of other enzymes associated with the activation of apoptosis in cancer cells, for example GSK3b or tyrosine kinases, or with the general non-specific toxicity of these compounds. Thus, the influence of NQO2 on A549 cell viability has not been established.
(§2) The A549 cells were maintained in F12-K (Gibco, Paisley, UK) supplemented with 10% fetal bovine serum (FBS, Gibco, UK), penicillin (100 UI mL^−1), streptomycin (100 µg mL^−1) and GlutaMax (2 mM, Gibco, UK). All cells line were cultured under a humidified atmosphere of 95% air/5% CO2 at 37 °C. Subconfluent monolayers, in the log growth phase, were harvested by a brief treatment with TrypLE Express solution (Gibco, UK) in phosphate-buffered saline (PBS, Capricorn Scientific, Ebsdorfergrund, Germany) and washed three times in serum-free PBS. The number of viable cells was determined by trypan blue exclusion.
(§3) The effects of the synthesized compounds on cell viability were determined using the MTT colorimetric test. All examined cells were diluted with the growth medium to 3.5 × 10^4 cells per mL and the aliquots (7 × 10^3 cells per 200 μL) were placed in individual wells in 96-multiplates (Eppendorf, Germany) and incubated for 24 h. […] After incubation, the cells were then treated with 40 μL MTT solution (3-(4,5-dimethylthiazol-2-yl)-2,5-diphenyltetrazolium bromide, 5 mg mL^−1 in PBS) and incubated for 4 h. After an additional 4 h incubation, the medium with MTT was removed and DMSO (150 μL) was added to dissolve the formazan crystals. The plates were shaken for 10 min. The optical density of each well was determined at 560 nm using a microplate reader GloMax Multi+ (Promega, Madison, WI, USA). Each of the tested compounds was evaluated for cytotoxicity in three separate experiments.

[2] = target: T1, human recombinant NRH:quinone oxidoreductase (NQO2) (Homo sapiens, UniProt P16083); test: biochemical; conditions: for inhibition at 10 µM: read-out: NQO2 Inhibition, %
T1 construct: purchased Sigma Q0380
T1 sequence (P16083 1-231): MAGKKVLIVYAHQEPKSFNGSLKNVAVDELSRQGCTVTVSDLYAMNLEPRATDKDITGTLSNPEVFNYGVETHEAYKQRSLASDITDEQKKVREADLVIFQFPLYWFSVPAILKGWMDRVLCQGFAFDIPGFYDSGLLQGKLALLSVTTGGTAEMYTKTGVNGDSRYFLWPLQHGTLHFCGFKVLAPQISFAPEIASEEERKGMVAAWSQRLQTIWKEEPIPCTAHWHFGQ
Protocol: The inhibition activity of all synthesized compounds at a concentration of 10 µM was preliminarily tested in vitro using human recombinant NRH:quinone oxidoreductase (NQO2).
The activity of recombinant human NQO2 (Sigma #Q0380, St. Louis, […], USA) was evaluated kinetically using menadione and N-benzyl-dihydronicotinamide (BNAH) as the substrate and co-substrate, respectively. All reagents and test compounds were dissolved in 50 mM Hepes-KOH (pH 7.4) containing 1 mM of β-octyl-D-glucopyranoside, 0.1 mg/mL BSA and 1 μM FAD. […] The solutions of the test compounds were pre-incubated for 5 min with 50 μL of human recombinant NQO2 (final concentration 42 ng/mL). Then, 25 μL of menadione was introduced at a final concentration of 100 μM. The reaction was started with 25 μL of 100 μM BNAH. The fluorescence of the co-substrate BNAH was followed at wavelengths of 370/440 nm at 37 °C using an Infinite M200 Pro microplate reader (Tecan, Grödig, Austria). The fluorescence data was fit according to a one-phase decay nonlinear regression to obtain slope values with Prism 8.0 (GraphPad Inc., San Diego, CA, USA). The activity in sample wells were normalized against negative control and enzyme-blank samples.

A549 cell line = test: Antiproliferative assay (MTT colorimetric test, 72 h); type: cell-based; conditions: n.a. = not active
Description: as §1, §2, §3

[3] = recombinant human NQO2, 100 μM menadione, 100 μM BNAH, read-out: NQO2 IC50 ± SEM

| Molecule | CC50 at 72 h [1] [µM] | IC50 [2, 3] [µM] | inhibition at 10 µM [2] [%] | also measured |
| --- | --- | --- | --- | --- |
| COC(=O)Nc1ccc2[nH]cc(CCNC(C)=O)c2c1 [MCA-NAT] | – | – | – | IC50 (NQO2): 0.037 µM |
| COc1ccc2[nH]cc(CCNC(C)=O)c2c1 [Melatonin] | – | – | – | IC50 (NQO2): 6 µM; NQO2 inhibition concentration range (NQO2): ~50 µM |
| COc1cc(C=C2C(=O)Nc3ccccc32)cc(OC)c1OC [Compound 23, (E,Z)-3-(3,4,5-Trimethoxybenzylidene)-2-oxindole] | 25.7 | 1.6 ± 0.14 | – | – |
| O=C1Nc2ccccc2C1=Cc1cccnc1 [Compound 7, 3-(3-pyridinylmethylidene)-2-oxindole] | 67.5 ± 7.58 | – | 59.2 | – |
| O=C1Nc2ccc(Br)cc2C1=Cc1cccnc1 [Compound 8, 5-bromo-3-(3-pyridinylmethylidene)-2-oxindole] | 22.3 ± 1.42 | – | 44.2 | – |
| Cc1ccc(C(=O)CC2(O)C(=O)Nc3ccccc32)cc1 (stereo not shown) [Compound 52, 3-hydroxy-3-[2-(4-methylphenyl)-2-oxoethyl]-2-oxindole] | 171 ± 13.4 | > 50 | – | – |
| O=C1Nc2ccc(Br)cc2C1=Cc1ccccn1 [Compound 3, 5-bromo-3-(2-pyridinylmethylidene)-2-oxindole] | 90.6 ± 1.5 | > 50 | – | – |
| COc1ccc(C=C2C(=O)Nc3ccccc32)cc1 [Compound 20, 3-((4-methoxyphenyl)methylene)-2-oxindole] | 54.8 | – | 40.8 | – |
| (E,Z)-3-(4-Fluorobenzylidene)-2-oxindole [Compound 33] | – | > 50 | – | CC50 (A549 cell line): 38.6 ± 10.4 µM; NQO2 Inhibition, % ([2]; inhibition at 10 µM concentration): 19.46% |
| COC(=O)Nc1ccc2c(c1)C(=Cc1ccc(O)cc1)C(=O)N2 [Compound 17, 3-(4-hydroxybenzylidene)-5-(methoxycarbonylamino)-2-oxindole] | 44.43 ± 0.29 | 0.44 ± 0.02 | – | – |
| O=C1Nc2ccc(NC(=O)c3ccccc3)cc2C1=Cc1ccccn1 [Compound 6, (E,Z)-3-(2-Pyridinylmethylidene)-5-benzoylamino-2-oxindole] | 17.4 ± 1.8 | – | 43.1 | – |
| Cc1n[nH]cc1C=C1C(=O)Nc2ccccc21 [Compound 43, 3-((3-methyl-1H-pyrazol-4-yl)methylene)-2-oxindole] | 219 | – | – | IC50 [2]: 7.61 ± 0.19 µM |
| COc1ccc(C(=O)CC2(O)C(=O)Nc3ccc(Br)cc32)cc1 (stereo not shown) [Compound 50, 3-hydroxy-5-bromo-3-[2-(4-methoxyphenyl)-2-oxoethyl]-2-oxindole] | 474 ± 18.2 | – | 78.8 | – |
| O=C1Nc2ccc(NC(=O)c3ccccc3)cc2C1=Cc1ccc(O)cc1 [Compound 19, 3-(4-hydroxybenzylidene)-5-benzoylamino-2-oxindole] | 412.2 ± 3.98 | – | 62.9 | – |
| O=C1Nc2ccc([N+](=O)[O-])cc2C1=Cc1ccco1 [Compound 36, 5-nitro-3-(2-furylmethylidene)-2-oxindole] | 329 ± 17 | – | 59.5 | – |
| COc1cc(C=C2C(=O)Nc3ccc(NC(C)=O)cc32)cc(OC)c1OC [Compound 24, 3-(3,4,5-trimethoxybenzylidene)-5-acetylamino-2-oxindole] | 149 ± 2.63 | 0.37 ± 0.01 | – | – |
| O=C1Nc2ccc(Br)cc2C1=Cc1ccco1 [Compound 35, 5-bromo-3-(2-furylmethylidene)-2-oxindole] | 449 ± 18.7 | – | – | IC50 [2]: > 50 µM |
